Where two headings read alike, the source gives them in different places.
Assays:
PI3K (p110δ/p85α) (h) = PI3K (p110δ/p85α) (h) (Homo sapiens (Human), UniProt O00329); experiment: PI3K (p110δ/p85α) (h) non-radioactive HTRF kinase assay; type: biochemical
[1] = Pharmacokinetics after intravenous and oral administration in rats; type: in vivo, rat; conditions: for clearance (CL) / AUC(0-t) / half-life / Vd: iv dosing; for bioavailability / AUC(0-t) / half-life / Vd: rat, plasma; for bioavailability: oral dose generally 5 or 10 mg/kg; for Vd: read-out: Vss
[2] = Compound stability in rat liver microsomes; type: in vitro ADME; conditions: pH 7.4; for half-life at 5 μM: rat liver microsomes 0.5 mg protein/mL, compound 5 μM, NADPH 1.0 mM, 37° C.; for CLint scaled at 5 μM: rat liver microsomes, in vivo CLint extrapolated
[3] = Compound stability in human liver microsomes; type: in vitro ADME; conditions: for half-life at 5 μM: human liver microsomes 0.5 mg protein/mL, compound 5 μM, NADPH 1.0 mM, 37° C.; for CLint scaled at 5 μM: human liver microsomes, in vivo CLint extrapolated
PI3K (p120γ) (h) = PI3K (p120γ) (h) (Homo sapiens (Human), UniProt P48736); experiment: PI3K (p120γ) (h) non-radioactive HTRF kinase assay; type: biochemical
PI3K (p110α/p85α) (h) = PI3K (p110α/p85α) (h) (Homo sapiens (Human), UniProt P42336); experiment: PI3K (p110α/p85α) (h) non-radioactive HTRF kinase assay; type: biochemical
PI3K (p110β/p85α) (h) = PI3K (p110β/p85α) (h) (Homo sapiens (Human), UniProt P42338); experiment: PI3K (p110β/p85α) (h) non-radioactive HTRF kinase assay; type: biochemical
PI3K (p110β/p85α) (h), sequence (P42338 whole entry): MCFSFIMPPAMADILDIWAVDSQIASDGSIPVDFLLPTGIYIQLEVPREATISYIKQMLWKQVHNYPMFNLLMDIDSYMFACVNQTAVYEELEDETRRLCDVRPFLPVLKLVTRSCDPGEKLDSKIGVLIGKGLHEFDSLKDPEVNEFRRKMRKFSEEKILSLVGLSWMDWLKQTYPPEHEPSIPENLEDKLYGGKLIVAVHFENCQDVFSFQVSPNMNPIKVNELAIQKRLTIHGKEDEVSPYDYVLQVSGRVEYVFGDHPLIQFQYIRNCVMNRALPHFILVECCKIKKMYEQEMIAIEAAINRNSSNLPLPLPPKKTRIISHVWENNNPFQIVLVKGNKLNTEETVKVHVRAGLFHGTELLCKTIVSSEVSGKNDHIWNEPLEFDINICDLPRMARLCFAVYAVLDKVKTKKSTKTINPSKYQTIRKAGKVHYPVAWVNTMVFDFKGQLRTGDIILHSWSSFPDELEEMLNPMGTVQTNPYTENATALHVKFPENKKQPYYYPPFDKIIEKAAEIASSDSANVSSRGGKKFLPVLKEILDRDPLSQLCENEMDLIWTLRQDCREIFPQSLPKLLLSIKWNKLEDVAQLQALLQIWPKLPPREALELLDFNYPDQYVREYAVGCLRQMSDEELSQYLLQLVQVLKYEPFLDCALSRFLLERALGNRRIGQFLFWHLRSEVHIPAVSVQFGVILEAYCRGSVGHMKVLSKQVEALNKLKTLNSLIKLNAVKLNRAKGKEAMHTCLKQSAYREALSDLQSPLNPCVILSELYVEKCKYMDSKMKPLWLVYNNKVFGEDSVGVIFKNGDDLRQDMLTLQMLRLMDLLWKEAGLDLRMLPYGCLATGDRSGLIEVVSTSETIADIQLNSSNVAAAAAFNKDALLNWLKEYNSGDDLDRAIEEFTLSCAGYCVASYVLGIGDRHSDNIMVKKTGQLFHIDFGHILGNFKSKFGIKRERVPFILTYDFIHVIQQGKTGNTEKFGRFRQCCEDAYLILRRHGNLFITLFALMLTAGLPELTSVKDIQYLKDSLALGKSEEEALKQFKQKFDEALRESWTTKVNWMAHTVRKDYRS
PI3K (p110β/p85α) (h), sequence (P27986 whole entry partner): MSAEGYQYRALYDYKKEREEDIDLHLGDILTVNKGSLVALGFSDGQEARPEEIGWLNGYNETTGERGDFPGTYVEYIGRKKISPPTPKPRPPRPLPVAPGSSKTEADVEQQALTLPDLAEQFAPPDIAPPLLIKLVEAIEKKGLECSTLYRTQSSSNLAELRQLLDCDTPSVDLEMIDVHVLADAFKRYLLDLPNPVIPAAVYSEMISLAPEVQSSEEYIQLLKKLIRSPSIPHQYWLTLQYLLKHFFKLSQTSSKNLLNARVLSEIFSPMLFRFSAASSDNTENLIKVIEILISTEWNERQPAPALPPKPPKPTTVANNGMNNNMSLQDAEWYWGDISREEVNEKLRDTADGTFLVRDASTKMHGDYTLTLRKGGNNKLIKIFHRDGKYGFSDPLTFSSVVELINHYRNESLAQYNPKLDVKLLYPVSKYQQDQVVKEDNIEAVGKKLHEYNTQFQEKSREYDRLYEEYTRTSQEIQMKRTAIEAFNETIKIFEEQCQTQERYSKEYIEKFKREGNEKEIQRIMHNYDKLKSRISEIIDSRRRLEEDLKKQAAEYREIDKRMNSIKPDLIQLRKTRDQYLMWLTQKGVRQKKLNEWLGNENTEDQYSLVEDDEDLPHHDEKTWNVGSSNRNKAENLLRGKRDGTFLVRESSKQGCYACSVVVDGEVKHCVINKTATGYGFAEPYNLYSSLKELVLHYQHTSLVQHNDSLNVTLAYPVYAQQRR

PI3K (p110α/p85α) (h), sequence (P42336 whole entry): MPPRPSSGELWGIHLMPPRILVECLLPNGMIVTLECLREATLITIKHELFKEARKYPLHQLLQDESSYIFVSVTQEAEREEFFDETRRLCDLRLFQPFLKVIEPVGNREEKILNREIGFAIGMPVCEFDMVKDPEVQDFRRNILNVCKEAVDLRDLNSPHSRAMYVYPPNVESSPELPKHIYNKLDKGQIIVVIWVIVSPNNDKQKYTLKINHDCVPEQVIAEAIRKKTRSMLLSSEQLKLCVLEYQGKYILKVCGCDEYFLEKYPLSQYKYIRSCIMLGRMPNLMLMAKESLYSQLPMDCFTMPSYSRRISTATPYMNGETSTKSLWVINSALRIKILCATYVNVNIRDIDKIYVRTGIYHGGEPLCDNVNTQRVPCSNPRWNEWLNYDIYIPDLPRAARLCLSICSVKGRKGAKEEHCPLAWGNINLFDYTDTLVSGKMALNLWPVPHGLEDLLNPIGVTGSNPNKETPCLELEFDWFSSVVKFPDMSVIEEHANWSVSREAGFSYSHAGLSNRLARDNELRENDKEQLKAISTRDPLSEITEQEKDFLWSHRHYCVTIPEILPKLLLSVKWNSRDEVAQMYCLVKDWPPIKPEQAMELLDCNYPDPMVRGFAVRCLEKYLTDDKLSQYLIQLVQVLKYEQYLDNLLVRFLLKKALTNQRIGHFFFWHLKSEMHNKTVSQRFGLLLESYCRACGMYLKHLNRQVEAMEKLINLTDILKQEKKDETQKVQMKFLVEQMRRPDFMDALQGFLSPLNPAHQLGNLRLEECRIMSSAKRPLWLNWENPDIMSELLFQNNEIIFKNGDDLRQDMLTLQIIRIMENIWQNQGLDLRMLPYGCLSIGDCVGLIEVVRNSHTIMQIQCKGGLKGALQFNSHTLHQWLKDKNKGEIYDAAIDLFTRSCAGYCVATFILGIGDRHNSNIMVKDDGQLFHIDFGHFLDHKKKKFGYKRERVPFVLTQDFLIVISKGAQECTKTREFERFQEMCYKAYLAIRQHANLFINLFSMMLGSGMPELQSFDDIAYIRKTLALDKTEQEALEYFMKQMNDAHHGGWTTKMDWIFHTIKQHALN
PI3K (p110α/p85α) (h), sequence (P27986 whole entry partner): as the sequence (P27986 whole entry partner) above
PI3K (p110δ/p85α) (h), sequence (O00329 whole entry): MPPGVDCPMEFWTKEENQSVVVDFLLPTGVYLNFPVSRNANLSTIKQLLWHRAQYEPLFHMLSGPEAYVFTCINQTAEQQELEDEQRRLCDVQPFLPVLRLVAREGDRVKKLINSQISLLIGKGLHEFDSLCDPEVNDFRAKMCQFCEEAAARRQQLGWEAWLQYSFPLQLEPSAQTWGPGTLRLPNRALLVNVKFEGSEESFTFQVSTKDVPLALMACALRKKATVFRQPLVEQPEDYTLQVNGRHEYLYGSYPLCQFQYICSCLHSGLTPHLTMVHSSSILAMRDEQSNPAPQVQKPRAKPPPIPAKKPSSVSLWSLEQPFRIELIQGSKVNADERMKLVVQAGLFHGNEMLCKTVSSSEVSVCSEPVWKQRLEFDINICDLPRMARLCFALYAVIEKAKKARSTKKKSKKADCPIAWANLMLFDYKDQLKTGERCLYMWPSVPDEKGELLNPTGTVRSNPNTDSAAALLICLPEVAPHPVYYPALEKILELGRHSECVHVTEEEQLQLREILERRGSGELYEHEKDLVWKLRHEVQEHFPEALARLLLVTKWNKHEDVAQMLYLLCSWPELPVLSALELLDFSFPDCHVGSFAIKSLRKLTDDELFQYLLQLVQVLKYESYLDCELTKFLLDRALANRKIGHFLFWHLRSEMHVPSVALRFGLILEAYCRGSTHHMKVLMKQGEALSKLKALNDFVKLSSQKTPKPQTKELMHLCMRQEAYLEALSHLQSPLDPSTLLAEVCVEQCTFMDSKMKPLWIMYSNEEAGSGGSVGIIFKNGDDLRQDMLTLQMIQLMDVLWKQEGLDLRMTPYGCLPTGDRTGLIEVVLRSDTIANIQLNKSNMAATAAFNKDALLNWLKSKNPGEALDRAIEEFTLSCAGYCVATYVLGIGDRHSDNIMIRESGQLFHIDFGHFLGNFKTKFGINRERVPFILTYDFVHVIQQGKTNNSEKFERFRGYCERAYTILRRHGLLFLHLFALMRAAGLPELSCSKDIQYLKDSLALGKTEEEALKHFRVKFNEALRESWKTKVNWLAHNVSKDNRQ
PI3K (p110δ/p85α) (h), sequence (P27986 whole entry partner): as the sequence (P27986 whole entry partner) above
PI3K (p120γ) (h), sequence (P48736 whole entry): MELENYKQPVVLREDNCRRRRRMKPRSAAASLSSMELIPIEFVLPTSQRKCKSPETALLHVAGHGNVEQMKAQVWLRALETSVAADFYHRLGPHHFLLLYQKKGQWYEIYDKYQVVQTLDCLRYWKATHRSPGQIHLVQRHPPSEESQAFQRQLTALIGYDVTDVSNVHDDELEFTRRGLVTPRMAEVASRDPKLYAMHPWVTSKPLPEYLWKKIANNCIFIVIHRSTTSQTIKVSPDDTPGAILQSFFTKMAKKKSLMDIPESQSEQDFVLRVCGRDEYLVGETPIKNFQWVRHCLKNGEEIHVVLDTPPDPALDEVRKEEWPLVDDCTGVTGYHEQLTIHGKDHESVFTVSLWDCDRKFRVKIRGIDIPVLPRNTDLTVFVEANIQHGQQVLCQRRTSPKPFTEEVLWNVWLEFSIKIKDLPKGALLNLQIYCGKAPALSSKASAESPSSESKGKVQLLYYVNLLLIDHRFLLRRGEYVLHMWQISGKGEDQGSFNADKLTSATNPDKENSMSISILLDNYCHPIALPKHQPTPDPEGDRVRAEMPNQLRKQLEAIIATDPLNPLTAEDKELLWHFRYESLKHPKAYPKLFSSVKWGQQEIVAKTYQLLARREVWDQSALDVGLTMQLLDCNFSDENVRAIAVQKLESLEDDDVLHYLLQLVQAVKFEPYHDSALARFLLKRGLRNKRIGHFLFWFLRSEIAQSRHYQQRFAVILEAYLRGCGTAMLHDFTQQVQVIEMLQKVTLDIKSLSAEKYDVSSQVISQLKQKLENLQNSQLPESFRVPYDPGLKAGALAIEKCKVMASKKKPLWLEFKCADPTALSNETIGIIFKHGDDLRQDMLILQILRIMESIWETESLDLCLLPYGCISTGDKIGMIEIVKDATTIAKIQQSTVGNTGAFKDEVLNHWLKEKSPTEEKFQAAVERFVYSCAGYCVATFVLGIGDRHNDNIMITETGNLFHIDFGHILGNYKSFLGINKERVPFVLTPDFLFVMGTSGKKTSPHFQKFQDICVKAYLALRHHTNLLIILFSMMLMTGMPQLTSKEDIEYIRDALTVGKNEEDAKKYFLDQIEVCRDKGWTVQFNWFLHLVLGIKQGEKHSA

IC50 (PI3K (p110δ/p85α) (h))	clearance (CL) ([1]; dose 0.5 mg/kg)	bioavailability ([1]; iv dose 0.5 mg/kg)	AUC(0-t) ([1]; dose 0.5 mg/kg)	half-life ([1]; dose 0.5 mg/kg)	Vd ([1]; dose 0.5 mg/kg)	half-life at 5 μM [2]	CLint scaled at 5 μM [2]	half-life at 5 μM [3]	CLint scaled at 5 μM [3]	IC50 (PI3K (p120γ) (h))	IC50 (PI3K (p110α/p85α) (h))	clearance (CL) ([1]; dose 1 mg/kg)	bioavailability ([1]; iv dose 1 mg/kg)	AUC(0-t) ([1]; dose 1 mg/kg)	half-life ([1]; dose 1 mg/kg)	Vd ([1]; dose 1 mg/kg)	IC50 (PI3K (p110β/p85α) (h))	SMILES
3 nM	47.3 mL/min/kg	32.3%	355 ng·h/mL	46.8 min	3.68 L/kg	17.5 min	142 mL/min/kg	53.5 min	32.5 mL/min/kg	384 nM	–	–	–	–	–	–	–	CC[C@H](Nc1ncnc(N)c1-c1nnc(C)o1)c1nc2cccc(Cl)c2c(=O)n1-c1ccccc1 [Ex. 1, (S)-2-(1-((6-amino-5-(5-methyl-1,3,4-oxadiazol-2-yl)pyrimidin-4-yl)amino)-propyl)-5-chloro-3-phenylquinazolin-4(3H)-one]
2 nM	–	–	–	–	–	31 min	80.2 mL/min/kg	36.7 min	47.4 mL/min/kg	66 nM	442 nM	70.8 mL/min/kg	64.5%	237 ng·h/mL	71.4 min	6.23 L/kg	142 nM	CC[C@H](Nc1ncnc(N)c1-c1nc(C)no1)c1nc2cccc(Cl)c2c(=O)n1-c1ccccc1 [Ex. 3, (S)-2-(1-((6-amino-5-(3-methyl-1,2,4-oxadiazol-5-yl)pyrimidin-4-yl)amino)-propyl)5-chloro-3-phenylquinazolin-4(3H)-one]
246 nM	–	–	–	–	–	10.5 min	237 mL/min/kg	19.4 min	89.7 mL/min/kg	–	–	54.8 mL/min/kg	45.7%	300 ng·h/mL	79.8 min	5.82 L/kg	2780 nM	CC[C@H](Nc1ncnc(N)c1-c1ncc(C)o1)c1nc2cccc(Cl)c2c(=O)n1C1CC1 [Ex. 7, (S)-2-(1-((6-amino-5-(5-methyloxazol-2-yl)pyrimidin-4-yl)amino)propyl)-5-chloro-3-cyclopropylquinazolin-4(3H)-one]
1470 nM	4.83 mL/min/kg	38.5%	1690 ng·h/mL	157 min	0.59 L/kg	62.2 min	39.9 mL/min/kg	78.2 min	22.2 mL/min/kg	–	–	–	–	–	–	–	> 3000 nM	CC[C@H](Nc1ncnc(N)c1-c1ccccn1)c1nc2cccc(Cl)c2c(=O)n1C1CC1 [Ex. 11, (S)-2-(1-((6-amino-5-(pyridin-2-yl)pyrimidin-4-yl)amino)propyl)-5-chloro-3-cyclopropylquinazolin-4(3H)-one]
11 nM	–	–	–	–	–	15.6 min	159 mL/min/kg	69.3 min	25.1 mL/min/kg	893 nM	2750 nM	51.8 mL/min/kg	75.5%	323 ng·h/mL	57 min	4.09 L/kg	502 nM	CC[C@H](Nc1ncnc(N)c1-c1nc(C)no1)c1nc2cccc(F)c2c(=O)n1-c1ccccc1 [Ex. 39, (S)-2-(1-((6-amino-5-(3-methyl-1,2,4-oxadiazol-5-yl)pyrimidin-4-yl)amino)-propyl)-5-fluoro-3-phenylquinazolin-4(3H)-one]
5 nM	–	–	–	–	–	22.4 min	111 mL/min/kg	41 min	42.4 mL/min/kg	261 nM	1200 nM	84.3 mL/min/kg	46.5%	200 ng·h/mL	65.4 min	6.68 L/kg	35 nM	Cc1noc(-c2c(N)ncnc2N[C@@H](C)c2nc3cccc(Cl)c3c(=O)n2C2CC2)n1 [Ex. 41, (S)-2-(1-((6-amino-5-(3-methyl-1,2,4-oxadiazol-5-yl)pyrimidin-4-yl)amino)-ethyl)-5-chloro-3-cyclopropylquinazolin-4(3H)-one]
37 nM	–	–	–	–	–	46.2 min	53.7 mL/min/kg	50.4 min	34.5 mL/min/kg	–	–	71.8 mL/min/kg	27.7%	238 ng·h/mL	81 min	6.11 L/kg	–	CC[C@H](Nc1ncnc(N)c1-c1nc(C)no1)c1nc2cccc(Cl)c2c(=O)n1[C@@H]1C[C@@H]1F [Ex. 62, 2-((S)-1-((6-amino-5-(3-methyl-1,2,4-oxadiazol-5-yl)pyrimidin-4-yl)amino)propyl)-5-chloro-3-((1R,2S)-2-fluorocyclopropyl)quinazolin-4(3H)-one]

The remaining lines, values behind:

SMILES	IC50 (PI3K (p110δ/p85α) (h))	clearance (CL) ([1]; dose 0.5 mg/kg)	bioavailability ([1]; iv dose 0.5 mg/kg)	AUC(0-t) ([1]; dose 0.5 mg/kg)	half-life ([1]; dose 0.5 mg/kg)	Vd ([1]; dose 0.5 mg/kg)	half-life at 5 μM [2]	CLint scaled at 5 μM [2]	half-life at 5 μM [3]	CLint scaled at 5 μM [3]	IC50 (PI3K (p120γ) (h))	IC50 (PI3K (p110α/p85α) (h))	clearance (CL) ([1]; dose 1 mg/kg)	bioavailability ([1]; iv dose 1 mg/kg)	AUC(0-t) ([1]; dose 1 mg/kg)	half-life ([1]; dose 1 mg/kg)	Vd ([1]; dose 1 mg/kg)	IC50 (PI3K (p110β/p85α) (h))
CC[C@H](Nc1ncnc(N)c1-c1nnc(C)o1)c1nc2cccc(Cl)c2c(=O)n1C1CC1 [Ex. 2, (S)-2-(1-((6-amino-5-(5-methyl-1,3,4-oxadiazol-2-yl)pyrimidin-4-yl)amino)-propyl)-5-chloro-3-cyclopropylquinazolin-4(3H)-one]	33 nM	–	–	–	–	–	31.4 min	79.1 mL/min/kg	32.1 min	54.1 mL/min/kg	1930 nM	> 3000 nM	41.2 mL/min/kg	63.9%	405 ng·h/mL	75.6 min	3.93 L/kg	168 nM
CC[C@H](Nc1ncnc(N)c1C1=N[C@@H](C)CO1)c1nc2cccc(Cl)c2c(=O)n1-c1ccccc1 [Ex. 6, 2-((S)-1((6-amino-5-((S)-4-methyl-4,5-dihydrooxazol-2-yl)pyrimidin-4-yl)amino)propyl)-5-chloro-3-phenylquinazolin-4(3H)-one]	99 nM	–	–	–	–	–	3.44 min	722 mL/min/kg	3.11 min	560 mL/min/kg	–	–	110 mL/min/kg	5.56%	151 ng·h/mL	69 min	6.75 L/kg	> 3000 nM
CC[C@H](Nc1ncnc(N)c1-c1ncnn1C)c1nc2cccc(Cl)c2c(=O)n1-c1ccccc1 [Ex. 10, 2-((1S)-1-((6-amino-5-(1-methyl-1H-1,2,4-triazol-5-yl)pyrimidin-4-yl)amino)propyl)-5-chloro-3-phenylquinazolin-4(3H)-one]	2510 nM	3.5 mL/min/kg	40.2%	2420 ng·h/mL	72 min	0.3 L/kg	70.1 min	35.4 mL/min/kg	92 min	18.9 mL/min/kg	–	–	–	–	–	–	–	> 3000 nM
CC[C@H](Nc1ncnc(N)c1-c1nnc(C)o1)c1nc2cccc(Cl)c2c(=O)n1-c1cccc(F)c1 [Ex. 34, (S)-2-(1-((6-amino-5-(5-methyl-1,3,4-oxadiazol-2-yl)pyrimidin-4-yl)amino)-propyl)-5-chloro-3-(3-fluorophenyl)quinazolin-4(3H)-one]	12 nM	–	–	–	–	–	8.94 min	278 mL/min/kg	29.8 min	58.3 mL/min/kg	> 3000 nM	> 3000 nM	–	–	–	–	–	1360 nM
CCc1nc(-c2c(N)ncnc2N[C@@H](C)c2nc3cccc(Cl)c3c(=O)n2C2CC2)no1 [Ex. 61, (S)-2-(1-((6-amino-5-(5-ethyl-1,2,4-oxadiazol-3-yl)pyrimidin-4-yl)amino)ethyl)-5-chloro-3-cyclopropylquinazolin-4(3H)-one]	44 nM	–	–	–	–	–	3.29 min	755 mL/min/kg	6.07 min	286 mL/min/kg	–	–	97.5 mL/min/kg	–	169 ng·h/mL	60 min	7.07 L/kg	–
Cc1noc(-c2c(N)ncnc2N[C@@H](C)c2nc3cccc(F)c3c(=O)n2-c2ccccc2)n1 [Ex. 63, (S)-2-(1-((6-amino-5-(3-methyl-1,2,4-oxadiazol-5-yl)pyrimidin-4-yl)amino)ethyl)-5-fluoro-3-phenylquinazolin-4(3H)-one]	18 nM	–	–	–	–	–	17.9 min	139 mL/min/kg	47.9 min	36.3 mL/min/kg	269 nM	> 3000 nM	–	–	–	–	–	1320 nM

From patent publication US9670194B2 (Calitor Sciences, LLC, priority 2013, dated 2017)
